The values below come from patent US20190125786A1, “NOBLE GAS MODULATION OF IL-12” (NOBILIS THERAPEUTICS, INC., priority 2016, published 2019).

One assay deals with CD1c dendritic cells. As to the kind of experiment: Suppression of Alzheimer's peptide induced dendritic cell IL-12 production (ELISA). Type of assay: cell-based, healthy volunteers. As to conditions: monocyte-derived CD1c dendritic cells; 1 ug/ml LPS and 10 μM Aβ (1-42) for 24 h; supernatant ELISA; FIG. 2. The protocol: Monocytes from adherent PBMC were isolated as described in Example 1. Dendritic cells were generated by 7 day culture in IL-4 (10 ng/ml) and GM-CSF (20 ng/ml). Media was changed every two days. On day 7, purification of CD1c dendritic cells was performed and cells were cultured in control media, 1 ug/ml LPS and 10 μM of amyloid beta peptide Aβ (1-42) for 24 h. Supernatant was collected and assessed for IL-12 production by ELISA.

The test system of assay [1] is monocytes (adherent peripheral blood mononuclear cells). In words: Suppression of Alzheimer's peptide induced monocyte TNF-alpha production (ELISA). The class given is cell-based, healthy volunteers. As to conditions: adherent cells cultured 1 hour or 2 hours in 30% xenon by volume; 1 ug/ml LPS and 10 μM Aβ (1-42) for 24 h; supernatant ELISA; FIG. 1. The procedure:
10 ml of heparinized blood was extracted from healthy volunteers and peripheral blood mononuclear cells were isolated by centrifugation over a ficoll gradient. Cells were subsequently washed in 2× volume phosphate buffered saline, and resuspended in RPMI media supplemented with 10% fetal calf serum. Cells were incubated at a concentration of 10 million cells per ml in 6-well plates in a volume of 2 ml per well. Cells were cultured for 24 hours at 37 Celsius in a fully humidified atmosphere with 5% CO2, subsequent to which non-adherent cells were removed by washing with PBS. Adherent cells were subsequently divided into […], one plate incubated at normoxic tissue culture, the second plate cultured for 1 hour in 30% xenon by volume, and the third tissue cultured for 2 hours in 30% volume. Cells were treated with control media, 1 ug/ml LPS and 10 μM of amyloid beta peptide Aβ (1-42) for 24 h. Supernatant was collected and assessed for TNF-alpha production by ELISA.

For `[Xe]` [xenon gas, xenon], the “induced IL-12 production” value with CD1c dendritic cells is “suppression of induced IL-12 production was observed”. Further, in assay [1], the “induced TNF-alpha production” value was “suppression of induced TNF-alpha production was observed”.
